Assay results reported in patent US10280160B2, “Phthalazinone compounds and methods for the treatment of cystic fibrosis” (FLATLEY DISCOVERY LAB, LLC, priority 2013, dated 2019).

target: human F508del CFTR (Homo sapiens (Human), UniProt P13569, DEL508-508); test: CFTR-YFP High Throughput Assay (YFP halide flux, FRT cells); assay type: cell-based; details: EMax normalized to the positive control; FRT cells expressing human F508del CFTR and YFP; read-out: % Efficacy
Experimental: Assays for Detecting and Measuring the Effect of Compounds on F508del-CFTR Channels CFTR-YFP Assay-CFTR Corrector Protocol:
This protocol is designed to selectively screen small molecule compounds for F508del CFTR corrector activities in the YFP (yellow fluorescent protein) flux assay. In this protocol, the cells are incubated with testing compounds for 24 hours, washed with PBS, stimulated with forskolin and a standard potentiator, and fluorescence in each plate well is measured kinetically read on a 384-well plate reader, such as the Hamamatsu FDSS-6000.
YFP fluorescence intensity values are acquired at high speed before and after iodide buffer is injected to the assay cells. Iodide enters the cells via active CFTR channels in the plasma membrane, and quenches the YFP fluorescence. The rate of fluorescence quenching is proportionate to the total CFTR activity in the cell membrane. F508del CFTR correctors increase the number of CFTR molecules in the testing cell plasma membrane, and thereby accelerate YFP quenching.
This method was initially developed for bench top plate readers (Galietta, J, Jayaraman, S and Verkman, A S. Cell-based assay for high-throughput quantitative screening of CFTR chloride transport agonists. Am. J. Physiol. Cell Physiol. (2001), 281: C173), and was adapted to the HTS format (Sui J, Cotard S, Andersen J, Zhu P, Staunton J, Lee M, Lin S. Optimization of a Yellow fluorescent protein-based iodide influx high-throughput screening assay for cystic fibrosis transmembrane conductance regulator (CFTR) modulators. Assay Drug Dev Technol. (2010), 8: 656-668).
Fisher Rat Thyroid (FRT) cells stably expressing both human F508del CFTR and a halide-sensitive yellow fluorescent protein (YFP-H148Q/I152L 25,22) (Galietta et al. Am. J. Physiol Cell Physiol 281(5), C1734, 2001) were cultured on plastic surface in Coon's modified Ham's F12 medium supplemented with FBS 10%, L-glutamine 2 mM, penicillin 100 U/ml, and streptomycin 100 μg/ml. G418 (0.75-1.0 mg/ml) and zeocin (3.2 ug/ml) were used for selection of FRT cells expressing F508del CFTR and YFP. For primary screening, FRT cells were plated into 384-well black wall, transparent bottom microtiter plates (Costar; Corning Inc.) at a cell density of 20,000-40,000 per well. Test compound was applied to the cells at varying concentrations ranging from 2 nM-40 μM in either a 2-fold or 3-fold dilution series. Cells were incubated in a cell culture incubator at 37° C. with 5% CO2 for 24-26 h. Assay plates were washed with DPBS media (Thermo, cat # SH30028.02) to remove unbound cells and compound. Stimulation media (25 μL) containing 20 μM Forskolin & 30 μM P3 [6-(Ethyl-phenyl-sulfonyl)-4-oxo-1,4-dihydro-quinoline-3-carboxylic acid 2-methoxy-benzylamide] in Hams F-12 coon's modified media was added to the plate wells and incubated at room temperature for 60-120 min. 25 μL of HEPES-PBS-I buffer (10 mM HEPES, 1 mM MgCl2, 3 mM KCl, 1 mM CaCl2, 150 mM NaI) was then added and fluorescence quench curves (Excitation 500 nm/Emission 540 nm; exposure 136 ms) were immediately recorded on an FDSS-6000 plate reader (Hamamatsu). Quench rates were derived from least squares fitting of the data as described by Sui et al (2010).
CFTR-YFP Assay-CFTR Potentiator Protocol:
This protocol is designed to selectively screen small molecule compounds for F508del CFTR potentiator activities in the YFP (yellow fluorescent protein) flux assay. Such compounds act acutely to stimulate CFTR already expressed on the membrane surface. In this protocol, the cells are incubated at 27° C. for 24 hours to homogeneously boost F508del CFTR expression in the cell membrane (low temperature correction), washed with PBS, treated with test compound, and CFTR activity is stimulated with forskolin for 1-2 hr. Measurement of ion flux is initiated by addition of iodide-containing buffer, and YFP quenching is kinetically recorded using a 384-well plate reader, such as the Hamamatsu FDSS-6000. […]

Sequence of human F508del CFTR (P13569 other isoform, or with tags, fused parts or gaps del F508-F508): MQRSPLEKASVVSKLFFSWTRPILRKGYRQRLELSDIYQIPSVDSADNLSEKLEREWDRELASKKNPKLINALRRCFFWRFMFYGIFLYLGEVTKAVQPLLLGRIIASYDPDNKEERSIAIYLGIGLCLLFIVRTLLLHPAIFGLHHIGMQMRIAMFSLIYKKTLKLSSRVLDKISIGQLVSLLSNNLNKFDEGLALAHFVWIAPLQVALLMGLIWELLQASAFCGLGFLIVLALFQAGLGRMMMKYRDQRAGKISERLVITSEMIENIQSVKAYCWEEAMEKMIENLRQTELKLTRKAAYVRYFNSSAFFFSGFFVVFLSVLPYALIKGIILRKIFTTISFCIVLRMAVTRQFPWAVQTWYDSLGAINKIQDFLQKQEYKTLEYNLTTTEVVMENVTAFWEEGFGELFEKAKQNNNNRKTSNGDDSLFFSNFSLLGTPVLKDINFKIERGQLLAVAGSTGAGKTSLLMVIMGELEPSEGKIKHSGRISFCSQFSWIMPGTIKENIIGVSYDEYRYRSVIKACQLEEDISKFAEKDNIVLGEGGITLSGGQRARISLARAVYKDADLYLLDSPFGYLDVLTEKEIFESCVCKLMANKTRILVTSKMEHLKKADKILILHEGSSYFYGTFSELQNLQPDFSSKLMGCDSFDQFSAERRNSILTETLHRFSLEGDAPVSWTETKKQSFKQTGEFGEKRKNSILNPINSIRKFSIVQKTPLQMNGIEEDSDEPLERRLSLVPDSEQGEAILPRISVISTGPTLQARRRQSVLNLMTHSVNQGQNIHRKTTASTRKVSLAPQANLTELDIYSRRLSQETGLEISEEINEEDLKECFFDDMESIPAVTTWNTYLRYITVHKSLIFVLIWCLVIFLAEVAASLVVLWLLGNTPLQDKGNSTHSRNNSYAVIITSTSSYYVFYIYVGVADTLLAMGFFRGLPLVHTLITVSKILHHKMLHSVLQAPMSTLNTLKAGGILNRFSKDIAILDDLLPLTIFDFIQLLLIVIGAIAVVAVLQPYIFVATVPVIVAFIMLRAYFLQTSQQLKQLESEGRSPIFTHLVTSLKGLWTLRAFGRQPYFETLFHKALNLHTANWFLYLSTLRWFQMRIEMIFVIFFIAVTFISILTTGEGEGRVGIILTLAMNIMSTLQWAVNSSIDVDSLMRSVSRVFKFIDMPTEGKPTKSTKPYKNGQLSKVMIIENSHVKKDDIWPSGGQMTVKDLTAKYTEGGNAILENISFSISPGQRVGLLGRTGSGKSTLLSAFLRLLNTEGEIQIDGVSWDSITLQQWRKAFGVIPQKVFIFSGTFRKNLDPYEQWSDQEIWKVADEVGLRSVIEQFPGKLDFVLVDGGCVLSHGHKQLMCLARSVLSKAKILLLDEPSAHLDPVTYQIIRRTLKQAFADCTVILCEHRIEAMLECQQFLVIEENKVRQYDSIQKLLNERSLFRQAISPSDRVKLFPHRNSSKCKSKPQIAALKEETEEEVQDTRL

| Emax [%] | SMILES |
| --- | --- |
| > 80 | CCOc1cc2c(=O)n(CC(=O)N(C)c3ccc4nc(C)oc4c3)nc(-c3cccc(Cl)c3)c2cc1Cl [Example 31, 2-(6-chloro-4-(3-chlorophenyl)-7-ethoxy-1-oxophthalazin-2(1H)-yl)-N-methyl-N-(2-methylbenzo[d]oxazol-6-yl)acetamide] |
| > 80 | CCN(C(=O)Cn1nc(-c2cccc(F)c2)c2ccc(OC)cc2c1=O)c1ccc2nc(C)oc2c1 [Example 8, N-ethyl-2-(4-(3-fluorophenyl)-7-methoxy-1-oxophthalazin-2(1H)-yl)-N-(2-methylbenzo[d]oxazol-6-yl)acetamide] |
| 30 to 80 | CCOc1cc2c(=O)n(CC(=O)N(C)c3ccc4nc(C)oc4c3)nc(-c3cccc(F)c3)c2cc1Cl [Example 30] |
| > 80 | COc1ccc2c(-c3cccc(Cl)c3)nn(CC(=O)N(c3ccc4nc(C)oc4c3)C3CC3)c(=O)c2c1 [Example 5, 2-(4-(3-chlorophenyl)-7-methoxy-1-oxophthalazin-2(1H)-yl)-N-cyclopropyl-N-(2-methylbenzo[d]oxazol-6-yl)acetamide] |
| > 80 | Cc1nc2ccc(N(C)C(=O)Cn3nc(-c4cccc(Cl)c4)c4ccc(OC5CCCCC5)cc4c3=O)cc2o1 [Example 26, 2-(4-(3-chlorophenyl)-7-(cyclohexyloxy)-1-oxophthalazin-2(1H)-yl)-N-methyl-N-(2-methylbenzo[d]oxazol-6-yl)acetamide] |
| 30 to 80 | Cc1nc2ccc(N(C(=O)Cn3nc(-c4cccc(F)c4)c4ccc(O)cc4c3=O)C3CC3)cc2o1 [Example 14, N-cyclopropyl-2-(4-(3-fluorophenyl)-7-hydroxy-1-oxophthalazin-2(1H)-yl)-N-(2-methylbenzo[d]oxazol-6-yl)acetamide] |
| > 80 | CCOc1ccc2c(-c3cccc(F)c3)nn(CC(=O)N(C)c3ccc4nc(C)oc4c3)c(=O)c2c1 [Example 17, 2-(7-ethoxy-4-(3-fluorophenyl)-1-oxophthalazin-2(1H)-yl)-N-methyl-N-(2-methylbenzo[d]oxazol-6-yl)acetamide] |
| > 80 | [2H]C([2H])([2H])N(C(=O)Cn1nc(-c2cccc(Cl)c2)c2ccc(OC)cc2c1=O)c1ccc2nc(C)oc2c1 [Example 6, 2-(4-(3-chlorophenyl)-7-methoxy-1-oxophthalazin-2(1H)-yl)-N-(methyl-d3)-N-(2-methylbenzo[d]oxazol-6-yl)acetamide] |
